# Where a name gives a salt, the structure may show the parent alone.
# Experiments:
# dopamine D2 receptor = experiment: [3H]-spiperidone binding, dopamine D2 receptor (D2 Spiper); conditions: ratio of D2 Spiper IC50 to D2 Quin. IC50 (LowAg/HighAg)
# Method: High affinity for the dopamine D2 receptor was established by the standard experimental test procedure of Fields, et al., Brain Res., 136, 5789 (1977) and Yamamura et al., ed., Neurotransmitter Receptor Binding, Chapter 9, page 171, Raven Press, N.Y. (1978) wherein homogenized limbic brain tissue is incubated with [^3H]-spiperidone at various concentrations of test compound, filtered washed, and shaken with Hydrofluor scintillation cocktail (National Diagnostics) and counted in a Packard 460 CD scintillation counter.
# dopamine autoreceptor = molecular target: T1, dopamine autoreceptor (Rattus norvegicus, UniProt P61169); experiment: [3H]-quinpirole binding, dopamine autoreceptor affinity (D2 Quin.); conditions: homogenized rat striatal brain tissue
# T1 construct: homogenized rat striatal brain tissue; from tissue; host or cells: rat striatal brain tissue homogenate
# Method: Affinity for the dopamine autoreceptor was established by a modification of the standard experimental test procedure of Seemen and Schaus, European Journal of Pharmacology 203: 105-109, 1991, wherein homogenized rat striatal brain tissue is incubated with [^3H]-quinpirole (Quin.) at various concentrations of test compound, filtered, washed and counted in a Betaplate scintillation counter.
# T1 sequence (P61169 whole entry): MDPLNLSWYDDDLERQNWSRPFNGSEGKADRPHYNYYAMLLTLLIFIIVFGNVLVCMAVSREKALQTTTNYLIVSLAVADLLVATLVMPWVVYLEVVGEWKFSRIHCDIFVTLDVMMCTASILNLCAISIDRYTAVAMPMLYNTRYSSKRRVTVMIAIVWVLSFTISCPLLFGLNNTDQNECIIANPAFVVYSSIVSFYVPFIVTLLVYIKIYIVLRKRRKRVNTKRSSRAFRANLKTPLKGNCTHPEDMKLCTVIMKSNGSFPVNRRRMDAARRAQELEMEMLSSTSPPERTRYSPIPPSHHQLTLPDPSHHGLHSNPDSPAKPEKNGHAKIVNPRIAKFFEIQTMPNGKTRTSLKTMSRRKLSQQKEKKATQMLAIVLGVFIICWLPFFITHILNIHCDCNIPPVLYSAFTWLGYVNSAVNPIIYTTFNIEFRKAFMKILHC
melting point [°C],Ratio (dopamine D2 receptor),IC50 (dopamine autoreceptor) [nM],SMILES
244,,,"FC(F)(F)c1nc2ccc3c(c2[nH]1)OC(CNCc1ccccc1)CC3 (stereo not drawn) (as salt: oxalate) [Example 1, Benzyl-(2-trifluoromethyl-1,6,7,8-tetrahydro-9-oxa-1,3-diaza-cyclopenta[a]naphthalen-8-ylmethyl)-amine]"
,75,11.5,"FC(F)(F)c1nc2ccc3c(c2[nH]1)OC(CNCc1ccccc1)CC3 (stereo not drawn) [Example 1, Benzyl-(2-trifluoromethyl-1,6,7,8-tetrahydro-9-oxa-1,3-diaza-cyclopenta[a]naphthalen-8-ylmethyl)-amine]"
